# From paper PMC4393269, “Carvacrol Codrugs: A New Approach in the Antimicrobial Plan” (PLoS ONE, 2015)
# Read-outs that look alike come from different tables or passages of the source.
# Tests used:
# Format in all cases: cell-based
# C. albicans ATCC 10231 [1] = experiment: Broth microdilution MIC/MFC; conditions: Candida albicans, ATCC10231
# Procedure: (§1) Two Gram-positive (S. aureus ATCC 29213 and S. epidermidis ATCC 35984) and two Gram-negative (E. coli ATCC 8739 and P. aeruginosa ATCC 9027) strains, and one fungal strain (C. albicans ATCC 10231) were used for the detection of antibacterial activity of carvacrol, NAC, Ac-Cys(Allyl)-OH, and carvacrol codrugs 1–10. All tested compounds were dissolved in 20% DMSO to prepare the stock solution (100 mg/mL). The final concentration of DMSO in each well appeared to be not toxic for all studied microorganisms, as confirmed by the solvent control test included in the study.
# The MIC detection of C. albicans ATCC 10231 was performed using the broth microdilution method according to EUCAST guidelines in RPMI 1640 plus 2% glucose with a final inoculum of 1–5 x 10^5 CFU/mL for 24–48 h at 37°C. The Minimum Fungicidal Concentration (MFC) was determined as the lowest concentration of substances at which no fungal growth occurred on Sabouraud agar plates.
# (§2) Data were obtained from at least three independent experiments performed in duplicate. The susceptibility of the bacterial strains against ciprofloxacin was used as an internal standard during MIC determinations.
# P. aeruginosa ATCC 9027 [2] = experiment: Broth microdilution MIC/MBC on planktonic cells; conditions: Pseudomonas aeruginosa
# Procedure: as §1
# (§3) The effects of carvacrol codrugs 1–10 and reference compounds on planktonic cells were evaluated by Minimum Inhibitory Concentration (MIC) and Minimum Bactericidal Concentration (MBC) determination using the broth microdilution method according to EUCAST guidelines. Bacterial suspensions, grown in Mueller–Hinton Broth (MHB) at logarithmic phase, were incubated on microtiter plates at a concentration of 5 x 10^5 CFU/mL, with several dilutions (0.07–40 mg/mL) for 24 h at 37°C. The MIC was defined as the lowest concentration of substances giving a complete inhibition of visible growth in comparison with a control well, and the MBC was determined as the lowest concentration at which no bacterial growth occurred on Mueller–Hinton Agar plates.
# as §2
# E. coli ATCC 8739 [3] = experiment: Broth microdilution MIC/MBC on planktonic cells; conditions: Escherichia coli
# Procedure: as §1, §3, §2
# [4] = system: S. epidermidis ATCC 35984; experiment: Broth microdilution MIC/MBC on planktonic cells; conditions: Staphylococcus epidermidis
# Procedure: as §1, §3, §2
# S. aureus ATCC 29213 [5] = experiment: Broth microdilution MIC/MBC on planktonic cells; conditions: Staphylococcus aureus
# Procedure: as §1, §3, §2
# P. aeruginosa ATCC 9027 [6] = experiment: Antibiofilm assay on established biofilm (BIC/BEC)
# Procedure: (§4) The efficacy on established biofilm was evaluated by determining Biofilm Inhibitory Concentration (BIC) and Biofilm Eradication Concentration (BEC) according to the method described by Johnson et al. with some modifications. Bacterial suspensions, grown in Tryptic soy broth supplemented with 0.5% (v/v) glucose at logarithmic phase, as well as C. albicans grown in RPMI 1640 plus 2% glucose, were incubated on flat-bottomed microtiter plates at a concentration of 5 x 10^5 CFU/mL. After 24 h of incubation at 37°C, the planktonic cells were gently removed and wells were washed with sterile phosphate-buffered saline solution (PBS) pH 7.3 and filled with carvacrol, carvacrol codrug 4, Ac-Cys(Allyl)-OH with dilutions ranging from the MIC values to a maximum concentration of 50 mg/mL. The OD600 was measured at time 0 and after incubation for 24 h at 37°C. The BIC values were determined as the lowest concentrations where no growth occurred in the supernatant fluid, confirmed by no increase in optical density compared with the initial reading. The BEC values were determined as the lowest concentrations at which no bacterial growth occurred on Tryptic soy agar for bacteria and on Sabouraud agar for C. albicans. Data were obtained from at least three independent experiments performed in duplicate.
# E. coli ATCC 8739 [7] = experiment: Antibiofilm assay on established biofilm (BIC/BEC)
# Procedure: as §4
# [8] = system: S. epidermidis ATCC 35984; experiment: Antibiofilm assay on established biofilm (BIC/BEC)
# Procedure: as §4
# C. albicans ATCC 10231 [9] = experiment: Antibiofilm assay on established biofilm (BIC/BEC)
# Procedure: as §4
# S. aureus ATCC 29213 [10] = experiment: Antibiofilm assay on established biofilm (BIC/BEC); conditions: S. aureus ATCC 29213 established biofilm
# Procedure: as §4
# [11] = system: human red blood cells (h-RBC); experiment: Hemolytic activity; conditions: 4% h-RBC, 1 h at 37°C, 25 to 0.05 mg/mL
# Procedure: Experimental protocols to study hemolysis on human red cells were approved by Ethics Committee of the University “G. d’Annunzio” Chieti-Pescara. Human red cells were from two volunteers, who signed the informed consent for this study.
# Hemolytic activity of carvacrol codrugs 1–10 was tested against human red blood cells (h-RBC). Fresh human blood, collected with EDTA, was centrifuged at 3000 rpm for 5 min then washed three times with PBS pH 7.3. Red blood cells were diluted to 4% in PBS and incubated with different codrugs concentrations ranging from 25 to 0.05 mg/mL. After 1 h of incubation at 37°C, the suspensions were sedimented by centrifugation and the release of hemoglobin was determined by absorbance measurement at 405 nm and compared with a 0% hemolysis control (PBS) and a 100% hemolysis control (PBS with 1% v/v Triton X-100). The percentage of hemolysis was calculated using the following equation: Hemolysis (%) = [(OD405sample - OD4050% lysis control)/(OD405100% lysis control - OD4050% lysis contro)] X 100
smiles,measurement,setting,value
"Cc1ccc(C(C)C)cc1O [Carvacrol, 2-methyl-5-[1-methylethyl]phenol]",MFC,C. albicans ATCC 10231 [1],600 µg/mL
same,MIC,C. albicans ATCC 10231 [1],300 µg/mL
same,MBC,P. aeruginosa ATCC 9027 [2]; ATCC9027,10000 µg/mL
same,MIC,"P. aeruginosa ATCC 9027 [2]; ATCC9027, 24 h",5000 µg/mL
same,MBC,E. coli ATCC 8739 [3]; ATCC8739,1250 µg/mL
same,MIC,"E. coli ATCC 8739 [3]; ATCC8739, 24 h",600 µg/mL
same,MBC,[4]; ATCC35984,1250 µg/mL
same,MIC,"[4]; ATCC35984, 24 h",300 µg/mL
same,MBC,S. aureus ATCC 29213 [5]; ATCC29213,1250 µg/mL
same,MIC,"S. aureus ATCC 29213 [5]; ATCC29213, 24 h",600 µg/mL
same,BEC as multiple of MIC,P. aeruginosa ATCC 9027 [6]; P. aeruginosa ATCC 9027,2MIC
same,BEC,P. aeruginosa ATCC 9027 [6]; P. aeruginosa ATCC 9027 established biofilm,10 mg/mL
same,BIC,"P. aeruginosa ATCC 9027 [6]; P. aeruginosa ATCC 9027 established biofilm, 24 h",5 mg/mL
same,BEC as multiple of MIC,E. coli ATCC 8739 [7]; E. coli ATCC 8739,64MIC
same,BIC as multiple of MIC,E. coli ATCC 8739 [7]; E. coli ATCC 8739,64MIC
same,BEC,E. coli ATCC 8739 [7]; E. coli ATCC 8739 established biofilm,40 mg/mL
same,BIC,"E. coli ATCC 8739 [7]; E. coli ATCC 8739 established biofilm, 24 h",40 mg/mL
same,BEC as multiple of MIC,[8]; S. epidermidis ATCC 35984,2MIC
same,BEC,[8]; S. epidermidis ATCC 35984 established biofilm,0.6 mg/mL
same,BIC,"[8]; S. epidermidis ATCC 35984 established biofilm, 24 h",0.3 mg/mL
same,BEC as multiple of MIC,C. albicans ATCC 10231 [9]; C. albicans ATCC 10231,MFC
same,BEC,C. albicans ATCC 10231 [9]; C. albicans ATCC 10231 established biofilm,0.6 mg/mL
same,BIC,"C. albicans ATCC 10231 [9]; C. albicans ATCC 10231 established biofilm, 24 h",0.3 mg/mL
same,BEC,S. aureus ATCC 29213 [10],2.5 mg/mL
same,BIC,S. aureus ATCC 29213 [10]; 24 h,1.2 mg/mL
"Cc1ccc(C(C)C)cc1OC(=O)CCCC[C@@H]1CCSS1 [codrug 7, LA-CAR]",MIC,"C. albicans ATCC 10231 [1]; C. albicans ATCC 10231, 24–48 h at 37°C, read-out: MIC",2500 µg/mL
same,MFC,"C. albicans ATCC 10231 [1]; C. albicans ATCC 10231, read-out: MFC",5000 µg/mL
same,"hemolytic activity, maximum at the tested concentrations",[11],≤ 12%
same,MIC,"P. aeruginosa ATCC 9027 [2]; ATCC9027, P. aeruginosa ATCC 9027, 24 h at 37°C, read-out: MIC",5000 µg/mL
same,MBC,"P. aeruginosa ATCC 9027 [2]; ATCC9027, P. aeruginosa ATCC 9027, read-out: MBC",10000 µg/mL
same,MIC,"E. coli ATCC 8739 [3]; ATCC8739, E. coli ATCC 8739, 24 h at 37°C, read-out: MIC",5000 µg/mL
same,MBC,"E. coli ATCC 8739 [3]; ATCC8739, E. coli ATCC 8739, read-out: MBC",10000 µg/mL
same,MIC,"[4]; ATCC35984, S. epidermidis ATCC 35984, 24 h at 37°C, read-out: MIC",10000 µg/mL
same,MBC,"[4]; ATCC35984, S. epidermidis ATCC 35984, read-out: MBC",10000 µg/mL
same,MIC,"S. aureus ATCC 29213 [5]; ATCC29213, S. aureus ATCC 29213, 24 h at 37°C, read-out: MIC",10000 µg/mL
same,MBC,"S. aureus ATCC 29213 [5]; ATCC29213, S. aureus ATCC 29213, read-out: MBC",10000 µg/mL
